Test results published in patent US20190119284A1, “ErbB Inhibitors and Uses Thereof” (The Regents of the University of California, priority 2016, published 2019).
Like-named read-outs stand apart in the source and are kept apart here.

Legend:
HER2+/2VE Ba/F3 line = test: Ba/F3 proliferation assay, HER2+/2VE; type: cell-based; conditions: Mus musculus, BaF3; Tables 7 and 8
Protocol: (§1) Proliferation Assays. For adherent cell lines, cells were plated onto opaque white 96 well plates (Greiner cat #655083) and allowed to adhere overnight. The following day media was changed to fresh media that contained either DMSO or the indicated concentration of drug plus NRG (50 ng/mL final concentration) as indicated. Plates were incubated at 37° C. for 72 h and proliferation was read out using Cell Titer Glo (Promega) according to the manufacturer's protocol. For Ba/F3 cell proliferation, cells, drug dilution, and any necessary growth factors (10 ng/mL IL-3 or 6.25 ng/mL NRG) were combined in a well of a 96 well plate. Plates were incubated at 37° C. for 48 h and proliferation was read out using Cell Titer Glo according to the manufacturer's protocol. For all normalized assays, proliferation was normalized to the DMSO control condition. All graphs were plotted in GraphPad Prism 6 and fit with a non-linear regression of the log(inhibitor) vs response with a variable slope where shown. All graphs are averages (+/−standard deviation) of biological triplicates each performed in technical triplicate unless otherwise noted. If only one biological replicate was performed standard deviations were derived from the technical replicates.

HCC827 = HCC827 cell viability; type: cell-based; conditions: Homo sapiens, compound at 1 nM, n in the line below, read-out: HCC827 (% viable at 1 nM)
NCI-H1975 = NCI-H1975 cell proliferation; type: cell-based; conditions: Homo sapiens, Table 8, n in the line below
[1] = system: parental Ba/F3 cells + IL-3; test: Ba/F3 proliferation assay, Parental + IL-3; type: cell-based; conditions: Mus musculus, BaF3; Tables 7 and 8; read-out: Ba/F3 line IC50, Parental + IL-3
Protocol: (§2) To validate the screen and test the effectiveness of counter-screening with either the same 2YF/3wt Ba/F3 cell line or the parental Ba/F3's in the presence of IL-3 to remove cytotoxic primary hits, we first tested a panel of kinase inhibitors with established mechanisms of action.
as §1

Axl+ Ba/F3 cells = biological target: T1, Axl+ Ba/F3 cells (Homo sapiens, UniProt P30530); test: Ba/F3 proliferation assay, Axl+; type: cell-based
T1 sequence (P30530 1-894): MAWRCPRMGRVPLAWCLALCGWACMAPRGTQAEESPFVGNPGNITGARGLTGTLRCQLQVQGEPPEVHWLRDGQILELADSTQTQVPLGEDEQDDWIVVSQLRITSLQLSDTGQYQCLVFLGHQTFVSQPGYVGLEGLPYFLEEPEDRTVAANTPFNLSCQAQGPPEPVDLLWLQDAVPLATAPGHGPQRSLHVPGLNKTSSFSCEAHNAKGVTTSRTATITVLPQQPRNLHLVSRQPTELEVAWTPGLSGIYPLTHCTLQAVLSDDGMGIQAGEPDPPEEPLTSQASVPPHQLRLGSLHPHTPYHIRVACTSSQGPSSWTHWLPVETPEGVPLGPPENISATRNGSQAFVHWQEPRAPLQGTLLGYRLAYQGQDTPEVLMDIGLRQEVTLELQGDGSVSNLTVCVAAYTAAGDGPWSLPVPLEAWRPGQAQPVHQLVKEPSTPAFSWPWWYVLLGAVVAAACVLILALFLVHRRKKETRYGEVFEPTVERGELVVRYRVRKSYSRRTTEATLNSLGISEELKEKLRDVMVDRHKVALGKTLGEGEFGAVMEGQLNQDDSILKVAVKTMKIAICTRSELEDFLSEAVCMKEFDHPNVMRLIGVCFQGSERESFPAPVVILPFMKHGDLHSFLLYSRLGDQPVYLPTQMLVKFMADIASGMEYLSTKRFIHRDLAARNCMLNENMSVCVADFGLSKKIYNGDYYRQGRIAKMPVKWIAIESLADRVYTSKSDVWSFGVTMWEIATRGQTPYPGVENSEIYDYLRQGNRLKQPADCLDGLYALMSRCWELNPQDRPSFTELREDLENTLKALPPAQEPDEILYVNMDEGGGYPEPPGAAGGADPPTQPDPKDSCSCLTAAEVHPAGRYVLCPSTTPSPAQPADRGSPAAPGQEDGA
Protocol: as §2
For Axl+ cells, the transduced cells were spun down at 500×g for 5 min and resuspended in media supplemented with 10 ng/mL IL-3 and 3 μg/mL puromycin (Invitrogen). Cells were maintained in these conditions for 7 days, passaging as required. After 7 days the cells were spun down, washed with fresh media, and then suspended in IL-3 free media. The cells were maintained in these conditions for 2 weeks to select for an IL-3 independent population of Axl+ driven cells.
as §1

[2] = biological target: 2YF/3wt + NRG Ba/F3 cells (HER2YF/HER3wt) (Homo sapiens, UniProt P04626, Y1005F/Y1023F/Y1112F/Y1127F/Y1139F/Y1196F/Y1221F/Y1222F/Y1248F, cells depend on it); test: Ba/F3 proliferation assay, 2YF/3wt + NRG; type: cell-based
Sequence of 2YF/3wt + NRG Ba/F3 cells (HER2YF/HER3wt) (P04626 whole entry Y1005F/Y1023F/Y1112F/Y1127F/Y1139F/Y1196F/Y1221F/Y1222F/Y1248F): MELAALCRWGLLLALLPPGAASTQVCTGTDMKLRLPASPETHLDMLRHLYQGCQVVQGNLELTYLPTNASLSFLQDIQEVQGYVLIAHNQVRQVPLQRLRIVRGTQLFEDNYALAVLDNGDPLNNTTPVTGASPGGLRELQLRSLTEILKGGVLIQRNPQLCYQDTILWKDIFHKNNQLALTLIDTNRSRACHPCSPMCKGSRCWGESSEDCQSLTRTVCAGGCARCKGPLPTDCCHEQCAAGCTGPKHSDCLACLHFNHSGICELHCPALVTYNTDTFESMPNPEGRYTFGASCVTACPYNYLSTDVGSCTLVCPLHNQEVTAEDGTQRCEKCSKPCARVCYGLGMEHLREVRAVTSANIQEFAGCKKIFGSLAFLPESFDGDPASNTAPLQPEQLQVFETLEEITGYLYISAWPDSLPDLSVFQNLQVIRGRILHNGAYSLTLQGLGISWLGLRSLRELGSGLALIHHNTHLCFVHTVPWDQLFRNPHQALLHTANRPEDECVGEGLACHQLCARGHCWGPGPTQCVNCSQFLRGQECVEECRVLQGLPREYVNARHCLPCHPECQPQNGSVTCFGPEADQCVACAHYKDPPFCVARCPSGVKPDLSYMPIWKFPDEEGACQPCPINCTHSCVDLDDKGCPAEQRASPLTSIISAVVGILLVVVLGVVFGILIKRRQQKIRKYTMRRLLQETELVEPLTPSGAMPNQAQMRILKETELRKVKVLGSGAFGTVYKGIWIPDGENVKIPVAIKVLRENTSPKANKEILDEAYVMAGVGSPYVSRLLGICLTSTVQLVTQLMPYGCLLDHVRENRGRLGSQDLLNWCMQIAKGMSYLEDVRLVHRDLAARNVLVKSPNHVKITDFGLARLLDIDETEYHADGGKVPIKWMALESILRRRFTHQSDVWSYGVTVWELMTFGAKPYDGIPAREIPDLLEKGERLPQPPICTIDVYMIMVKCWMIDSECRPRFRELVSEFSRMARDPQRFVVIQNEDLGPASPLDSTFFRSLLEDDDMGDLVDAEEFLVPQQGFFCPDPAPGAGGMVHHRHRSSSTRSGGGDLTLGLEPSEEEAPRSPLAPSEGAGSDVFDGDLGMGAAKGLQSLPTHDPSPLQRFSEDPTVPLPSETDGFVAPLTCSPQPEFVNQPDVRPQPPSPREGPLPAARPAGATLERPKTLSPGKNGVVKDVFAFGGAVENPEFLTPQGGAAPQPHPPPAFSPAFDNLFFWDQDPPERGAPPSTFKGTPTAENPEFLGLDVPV
Text: Ba/F3 cells are normally dependent on IL-3 signaling for their proliferation and survival, but can be made dependent on introduced oncogenic signals. We sequentially selected transduced Ba/F3 cells for populations stably expressing HER3 and then HER2. To ensure that all of the proliferative signal could be attributed to HER2/HER3 heterodimers, rather than HER2 homodimers, the 9 C-terminal tyrosines in HER2 were mutated to phenylalanine (HER2YF). We then withdrew IL-3 and supplemented the media with NRG to select for NRG dependent HER2YF/HER3wt cells (2YF/3wt).
For the 2YF/3wt cells, the parental cells were first transduced with HER3 according to the protocol above and were then spun down at 500×g for 5 min and re-suspended in media supplemented with 10 ng/mL IL-3 and 3 μg/mL puromycin (Invitrogen). Cells were maintained in these conditions for seven days, passaging as required. After seven days the cells were spun down, washed with fresh media, and then used for a subsequent round of transduction according to the protocol above with HER2YF virus. […] The cells were maintained in these conditions for seven days, passaging as required. After seven days the cells were spun down, washed with fresh media, and then suspended in media supplemented with 10 ng/mL of NRG. Cells were maintained in these conditions for seven days to select for a NRG dependent population of 2YF/3wt Ba/F3 cells that were then maintained as described above. The same protocol was used for the 2YF-L755S/3wt, 2YF-YVMA/3wt, and 2YF-VC/3wt cell lines using the indicated constructs.
Proliferation Assays. […] The following day media was changed to fresh media that contained either DMSO or the indicated concentration of drug plus NRG (50 ng/mL final concentration) as indicated. […] For all normalized assays, proliferation was normalized to the DMSO control condition. All graphs were plotted in GraphPad Prism 6 and fit with a non-linear regression of the log(inhibitor) vs response with a variable slope where shown. All graphs are averages (+/−standard deviation) of biological triplicates each performed in technical triplicate unless otherwise noted. If only one biological replicate was performed standard deviations were derived from the technical replicates.

A431 = A431 cell proliferation; type: cell-based; conditions: Homo sapiens, A-431; Table 8; n in the line below
[3] = Mouse Liver Microsome stability assay; type: in vitro ADME; conditions: mouse liver microsomes
[4] = system: Ba/F3 cell line panel (HER2YF/HER3); test: 48 h proliferation of the Ba/F3 cell line panel (CellTiter-Glo); type: cell-based; conditions: 48 h proliferation curves
Protocol: FIGS. 3A-3D. Design and execution of a high-throughput screen identifies a novel HER2/HER3 inhibitor. FIG. 3A: 2YF/3wt cells were incubated in the presence or absence of NRG for 48 h and proliferation was assessed by CellTiter-Glo (mean±SD, n=1). […] FIG. 3C: Structure and proliferation curves for hit compound 1 (also referred herein as compound 185) against the Ba/F3 cell line panel (mean±SD, n=3), FIG. 3D: Structure and proliferation curves for compound 2 (also referred to herein as compound 55A) against the panel of Ba/F3 cell lines (mean±SD, n=3).
FIGS. 4A-4F. Compound 2 is a selective Type I inhibitor for HER2. […] FIG. 4B: Thermal stabilization of the HER3 kinase domain by either compound 2 or ATP as determined by Thermofluor (mean±SD, n=3). FIGS. 4C-4D: The crystal structure of either erlotinib (FIG. 4C) or 2 (FIG. 4D) bound to EGFR V924R. The kinase domain in complex with compound 2 has been stabilized in the active confirmation by drug binding, despite the mutation—as evidenced by the ordered extension of the activation loop and the inward positioning of the α-C helix.
FIGS. 5A-5D. […] FIG. 5A: Chemical structure of compound 3 (also referred to herein as compound 178). FIG. 5B: Proliferation curves for compound 3 against the Ba/F3 cell line panel (mean±SD, n=3). […] FIG. 5D: The same assay in FIG. 2A was performed with compound 3 in SK-BR-3 cells.
FIG. 10. […]

[5] = system: HER2YF/HER3E928G (2YF/3EG) Ba/F3 cells; test: Ba/F3 proliferation assay, 2YF/3EG +/- NRG; type: cell-based; conditions: + NRG vs no NRG
Text: Consistent with the results in the HER2 overexpressing cell lines, CW-2 cells that harbor a HER3-activating mutation were equally sensitive to compound 3+/−NRG in both proliferation and signaling assays (FIGS. 6A-6B). […] To further evaluate the potential of compound 3 against HER2 mutants within a HER2/HER3 heterodimer we transduced wt HER3 containing Ba/F3 cells with reported HER2 oncogenic mutants in the HER2YF construct.
For HER2YF/3EG Ba/F3 cells were selected according to the protocol for the HER2YF/3TM Ba/F3's with the exception that no NRG was supplemented in the media during IL-3 independent selection.
as §1

[6] = system: 2YF/3wt + IL-3 Ba/F3 cells; test: Ba/F3 proliferation assay, 2YF/3wt + IL-3; type: cell-based; conditions: Mus musculus, BaF3; Table 4; ± S.D., n = 3; 48 h Cell Titer Glo
Protocol: as §2, §1

[7] = Tables 7 and 8, read-out: Ba/F3 line IC50, Axl+
[8] = Tables 7 and 8, read-out: Ba/F3 line IC50, HER2YF/HER3 + NRG

SMILES | IC50 (HER2+/2VE Ba/F3 line) [µM] | viability at 0.001 µM (HCC827) [%] | IC50 (NCI-H1975) [µM] | IC50 [1] [µM] | GI50 (Axl+ Ba/F3 cells; [7]) [µM] | GI50 [2, 8] [µM] | IC50 (A431) [µM] | WuXi Microsomal stability (Mouse Extraction Ratio) [3] | level of pathway inhibition distinguished by the Ba/F3 panel [4] | GI50 (Axl+ Ba/F3 cells; Table 4, ± S.D., n = 3, 48 h Cell Titer Glo, read-out: IC50, Axl) [µM] | reduction of sensitivity on addition of NRG [5] [fold] | GI50 ([2]; Table 4, ± S.D., n = 3, 48 h Cell Titer Glo, read-out: IC50, 2YF/3wt + NRG) [µM] | IC50 [6] [µM]
COc1ccc(-c2ccccc2)cc1Nc1ncnc2[nH]cc(-c3cc[nH]n3)c12 [8-089] | 0.118 | 99.9 ± 14.6 | 2.25 ± 0.054 | 2.44 | 1.16 | 0.0208 | 0.914 ± 0.134 | – | – | – | – | – | –
COc1ccc(-c2ccccn2)cc1Nc1ncnc2[nH]cc(-c3cc[nH]n3)c12 [8-090] | 0.895 | 102 | 2.54 | 2.25 | 1.57 | 0.227 | 0.911 | – | – | – | – | – | –
COc1ccc(-c2ccsc2)cc1Nc1ncnc2[nH]cc(-c3cc[nH]n3)c12 [8-091] | 0.12 | 80.9 ± 24 | 1.42 ± 0.117 | 2.59 | 0.697 | 0.00925 | 0.634 ± 0.188 | – | – | – | – | – | –
COc1ccc(-c2cccs2)cc1Nc1ncnc2[nH]cc(-c3cc[nH]n3)c12 [8-092] | 0.232 | 81.6 ± 21.1 | 1.9 ± 0.134 | > 3.33 | 1.2 | 0.0205 | 0.762 ± 0.215 | – | – | – | – | – | –
COc1ccc(-c2ccccc2)cc1Nc1ncnc2[nH]cc(-c3ccn(C)n3)c12 [8-095] | 0.0467 | 49.2 ± 13.7 | 1.74 ± 0.157 | > 3.33 | 1.31 | 0.005 | 1.12 ± 0.059 | – | – | – | – | – | –
COc1ccc(-c2ccccc2)cc1Nc1ncnc2[nH]nc(-c3cc[nH]n3)c12 [8-096] | 0.0314 | 30.6 ± 4.2 | 0.891 ± 0.0186 | 1.54 | 0.501 | 0.002 | 0.471 ± 0.0634 | – | – | – | – | – | –
COc1ccc(-c2ccccc2)cc1Nc1ncnc2[nH]nc(-c3ccn(C)n3)c12 [8-097] | 0.0137 | 29.5 ± 7.1 | 0.507 ± 0.0851 | 1.77 | 0.612 | 0.001 | 0.29 ± 0.071 | – | – | – | – | – | –
CN(C)c1ccc(-c2ccsc2)cc1Nc1ncnc2[nH]nc(-c3cc[nH]n3)c12 [104A] | 0.0485 | 29.8 ± 2.7 | 0.72 ± 0.03 | 1.6 | 0.844 | 0.0015 | 0.33 ± 0.125 | 0.87 | – | – | – | – | –
CN(C)c1ccc(-c2ccsc2)cc1Nc1ncnc2[nH]nc(-c3ccn(C)n3)c12 [104B] | 0.0464 | 25.2 ± 3.4 | 0.814 ± 0.059 | ~2 | 1.56 | 0.0015 | 0.343 ± 0.169 | – | – | – | – | – | –
CC(=O)Nc1nc(C)c(-c2ccc(Cl)c(S(=O)(=O)NCCO)c2)s1 [PIK-93] | – | – | – | – | – | – | – | – | hit downstream | – | – | – | –
CC(C)(O)CC(=O)NCCn1ccc2ncnc(Nc3ccc(Oc4cccc(C(F)(F)F)c4)c(Cl)c3)c21 [TAK-285, reference compound] | – | – | – | – | – | – | – | – | – | > 3.33 | 40 | 0.399 ± 0.111 | > 10
COc1ccc(-c2ccoc2)cc1Nc1ncnc2[nH]cc(-c3cc[nH]n3)c12 [compound 178] | 0.0703 | – | – | 2.54 | 1.17 | 0.0068 | – | 0.948 | – | – | – | – | –
